Test results from US4333947A, “Substituted imidazoles and their use” (Farmos-Yhtyma Oy, priority 1980, dated 1982).
Read-outs that look alike come from different tables or passages of the source.

Legend:
[1] = system: Sprague-Dawley rats; experiment: blood pressure and pulse frequency in anesthetized rats of normal weight; assay type: in vivo; settings: for minimal effective dose: Rattus norvegicus, iv, anesthetized rats, i.v.
Method: The anti-hypertensive properties of the imidazole derivatives of the present invention have been determined according to the following procedure. Sprague-Dawley rats of normal weight were first anesthetized with urethane. After this, the femoral artery was connected by way of a polyethylene tube with a blood pressure transducer. The test substance was then injected into the femoral vein and the blood pressure and the pulse frequency were registered with a recorder.

[2] = acute toxicity, i.v., female mice of NMRI-Strain; settings: mouse, in vivo, iv
Method: Acute toxicity was determined by using female mice of NMRI-Strain with an age of about 7 months and weighing 30-40 g. The administration of the test compound was i.v.

[3] = system: all standard bacterial and fungal species; experiment: antimicrobial activity in vitro, agar diffusion method, all standard bacterial and fungal species; assay type: cell-based; settings: 1000 μg/ml
Method: (§1) The antimicrobial activity was determined in vitro according to a qualitative test for antibacterial and antifungal activity, using the agar diffusion method, against the following standard organisms: Staphylococcus aureus, Streptococcus pyogenes, Escherichia coli, Proteus mirabilis, Pseudomonas aeruginosus, Candida albicans and Aspergillus niger.

[4] = system: rats; experiment: diuretic effect in rats, urine output 0-5 hours after i.p. injection; assay type: in vivo
Method: The diuretic effect was studied in rats by collecting the urine output during 0-5 hours after i.p. injection of the compound. Before the test the rats were fasting overnight and got 10 ml water p.o. immediately before the injection.

[5] = system: E. coli; experiment: antibacterial activity in vitro, agar diffusion method, E. coli; assay type: cell-based, Escherichia coli; settings: 100 μg/ml
Method: as §1

[6] = system: Staph. aureus; experiment: antibacterial activity in vitro, agar diffusion method, Staph. aureus; assay type: cell-based, Staphylococcus aureus; settings: 100 μg/ml
Method: as §1

[7] = system: all other bacterial and fungal species; experiment: antimicrobial activity in vitro, agar diffusion method, all other bacterial and fungal species (than E. coli and Staph. aureus); assay type: cell-based; settings: 1000 μg/ml
Method: as §1

[8] = system: isoprenaline-induced chronotropic and inotropic action in the isolated atrium; experiment: β-blocking activity in vitro, isoprenaline-induced chronotropic and inotropic action in isolated guinea-pig atrium; assay type: cell-based; settings: Cavia porcellus; 1 μg/ml; read-out: inhibition of isoprenaline-induced chronotropic effect
Method: The β-blocking activity was measured in vitro as follows: The atrium of a guinea-pig was isolated. The inhibiting activity of the compound against isoprenaline-induced chronotropic and inotropic action in the isolated atrium was measured.

[9] = system: all the bacterial species; experiment: antibacterial activity in vitro, agar diffusion method, all bacterial species; assay type: cell-based; settings: 1000 μg/ml
Method: as §1

[10] = system: fungi; experiment: antifungal activity in vitro, agar diffusion method, fungi; assay type: cell-based, Candida albicans and Aspergillus niger; settings: 1000 μg/ml
Method: as §1

[11] = system: arachidonic acid induced pulmonary thromboembolism; experiment: antithrombotic activity in vivo, arachidonic acid induced pulmonary thromboembolism in mice; settings: 10 mg/kg p.o.
Method: The antithrombotic activity was investigated in vivo in mice as follows: The compounds to be tested were administered orally. After this arachidonic acid was given i.v. The inhibiting activity of the test compounds against arachidonic acid induced pulmonary thromboembolism was investigated.

[12] = system: Candida albicans; experiment: antifungal activity in vitro, agar diffusion method, Candida albicans; assay type: cell-based; settings: 1000 μg/ml
Method: as §1

[13] = system: Aspergillus niger; experiment: antifungal activity in vitro, agar diffusion method, Aspergillus niger; assay type: cell-based; settings: 1000 μg/ml
Method: as §1

[14] = system: collagen-induced aggregation of thrombocytes; experiment: antithrombotic activity in vitro, collagen-induced aggregation of thrombocytes; assay type: cell-based; settings: cow thrombocytes, 10 min incubation
Method: (§2) In a further test the antithrombotic activity was investigated in vitro. The inhibiting activity of the compounds against ADP- and collagen-inducedaggregation of thrombocytes was measured. In the test thrombocytes from a cow was used. To 1.2 ml of plasma containing 250000 thrombocytes/mm^3 were added 50 μl of a solution of the compound to be tested. After 10 min incubation either ADP or collagen was added. The aggregation of the thrombocytes was turbidimetrically determined at λ=605 n m.

[15] = system: ADP-induced aggregation of thrombocytes; experiment: antithrombotic activity in vitro, ADP-induced aggregation of thrombocytes; assay type: cell-based; settings: cow thrombocytes, 10 min incubation
Method: as §2

[16] = 1 mg/kg, 20 minutes after administration
[17] = read-out: dose i.v. causing a registrable lowering of the blood pressure
[18] = 300 μg/kg i.v., 20 minutes after administration

For Clc1cccc(Cl)c1C=Cc1c[nH]cn1 [4-[2-(2',6'-Dichlorophenyl)-ethenyl]-imidazole], the “decrease of pulse frequency” value [1, 16] was 30%, the “lowering of the blood pressure” value [1, 16] was 25% and the LD50 [2] was 85 mg/kg. The “antimicrobial activity against all standard bacterial and fungal species” value [3] was “active”, the “diuretic effect (5h)” value ([4]; 0.005 mg/kg i.p.) was 128% and the “diuretic effect (5h)” value ([4]; 0.05 mg/kg i.p.) was 132%. The “diuretic effect (5h)” value ([4]; 0.5 mg/kg i.p.) was 135%.
For Cc1cccc(C)c1CC=Cc1c[nH]cn1 [4-[3-(2',6'-Dimethylphenyl)-1-propenyl]-imidazole], the “decrease of the blood pressure” value ([1]; 1-3 mg/kg i.v., 20 minutes after administration) was 20% and the LD50 [2] was 75 mg/kg.
For Cc1cccc(C)c1CCCC=Cc1c[nH]cn1 [4-[5-(2',6'-Dimethylphenyl)-1-pentenyl]-imidazole], the LD50 [2] was 40 mg/kg, the “activity against E. coli” value [5] was “active” and the “activity against Staph. aureus” value [6] was “active”. The “activity against all other bacterial and fungal species” value [7] was “active” and the inhibition at 1 µg/mL [8] was 57%.
With Cc1[nH]cnc1C=Cc1ccccc1Cl [4-[2-(2'-Chlorophenyl)-ethenyl]-5-methyl-imidazole] the LD50 [2] was 85 mg/kg, the “activity against all the bacterial species” value [9] was “active” and the “activity against the fungi” value [10] was “not against the fungi”. The inhibition at 1 µg/mL [8] was 67% and the “mice protected from arachidonic acid-induced pulmonary thromboembolism” value [11] was 4 of 5.
For Cc1[nH]cnc1C=Cc1c(Cl)cccc1Cl [4-[2-(2',6'-Dichlorophenyl)-ethenyl]-5-methyl-imidazole], the “lowering of the blood pressure” value ([1]; 3 mg/kg i.v., 20 minutes after administration) was 30%, the minimal effective dose ([1]; read-out: dose i.v. at which a decrease of pulse frequency was noticed) was 1 mg/kg and the minimal effective dose [1, 17] was 0.3 mg/kg. The LD50 [2] was 100 mg/kg, the “activity against all the bacterial species” value [9] was “active” and the “activity against Candida albicans” value [12] was “active”. The “activity against Aspergillus niger” value [13] was “inactive”.
With Cc1cccc(C)c1/C=C/c1c[nH]cn1 [4-[2-(2',6'-Dimethylphenyl)-ethenyl]-imidazole] the “decrease of pulse frequency” value [1, 18] was 24%, the “reduction of the blood pressure” value [1, 18] was 20% and the minimal effective dose [1, 17] was 0.01 mg/kg. It also gave an LD50 [2] of 50 mg/kg.
For Cc1cccc(CC=Cc2c[nH]cn2)c1C [4-[3-(2',3'-Dimethylphenyl)-1-propenyl]-imidazole], the “decrease of the blood pressure” value ([1]; 0.3-1 mg/kg i.v., 20 minutes after administration) was 20%, the LD50 [2] was 75 mg/kg and the “inhibition of collagen-induced thrombocyte aggregation” value [14] was “completely”. The “inhibition of ADP-induced thrombocyte aggregation” value [15] was “clearly”.
